According to ChEMBL document CHEMBL4842386, “Discovery of Reldesemtiv, a Fast Skeletal Muscle Troponin Activator for the Treatment of Impaired Muscle Function” (J Med Chem, 2021):
Converted amounts (≈) assume the structure as drawn. The source made the active and inactive calls. The calls are words filed in the database; no cut-off is given here.

Experiments:
[1] = Metabolic stability in human liver microsomes assessed as intrinsic clearance measured after 90 mins by HPLC/MS/MS analysis; format: ADME, Microsome; conditions: read-out: CLH
Psoas muscle [2] = assay: Activation of fast twitch skeletal muscle in rabbit psoas muscle myofibrils by measuring increase in myofibril ATPase activity at 25% calcium concentration; format: functional; conditions: Oryctolagus cuniculus
Psoas muscle [3] = assay: Increase in psoas muscle force in rabbit skinned single fiber preparation at a calcium concentration that produces a force increase that is 25% of the maximum response in a control preparation by skinned fast skeletal muscle fiber assay; format: functional; conditions: Oryctolagus cuniculus
[4] = Thermodynamic solubility of the compound; format: physicochemical; conditions: read-out: Therm_solubility
[5] = Intrinsic clearance in male rat hepatocytes; format: ADME, cell-based, Hepatocyte; conditions: read-out: CLH
[6] = target: T1, Nuclear receptor subfamily 1 group I member 2 (Homo sapiens, UniProt O75469); assay: Transactivation of human PXR transfected in DPX2 cells assessed as CYP3A4 induction at 10 uM by luciferase reporter gene assay; format: ADME, cell-based; conditions: dpx2, 10 µM
T1 sequence (O75469 whole entry): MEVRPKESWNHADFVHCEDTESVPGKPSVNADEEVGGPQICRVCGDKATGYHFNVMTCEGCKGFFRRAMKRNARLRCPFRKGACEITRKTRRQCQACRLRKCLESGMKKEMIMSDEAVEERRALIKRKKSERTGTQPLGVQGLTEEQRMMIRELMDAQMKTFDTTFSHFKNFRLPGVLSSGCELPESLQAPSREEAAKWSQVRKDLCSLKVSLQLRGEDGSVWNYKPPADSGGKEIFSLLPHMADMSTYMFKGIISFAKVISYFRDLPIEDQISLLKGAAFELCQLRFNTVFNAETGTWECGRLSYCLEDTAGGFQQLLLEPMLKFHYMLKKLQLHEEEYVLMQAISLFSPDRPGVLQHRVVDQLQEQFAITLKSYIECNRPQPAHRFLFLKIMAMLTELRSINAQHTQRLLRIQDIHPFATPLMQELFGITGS

hERG (KCNH2) = hERG (KCNH2) (Homo sapiens, UniProt Q12809); assay: Displacement of [3H]astemizole from human ERG expressed in HEK293 cells at 100 uM relative to control; format: cell-based; conditions: HEK293 cells that express hERG, probe [3H]astemizole
Chain of hERG (KCNH2) (Q12809 whole entry): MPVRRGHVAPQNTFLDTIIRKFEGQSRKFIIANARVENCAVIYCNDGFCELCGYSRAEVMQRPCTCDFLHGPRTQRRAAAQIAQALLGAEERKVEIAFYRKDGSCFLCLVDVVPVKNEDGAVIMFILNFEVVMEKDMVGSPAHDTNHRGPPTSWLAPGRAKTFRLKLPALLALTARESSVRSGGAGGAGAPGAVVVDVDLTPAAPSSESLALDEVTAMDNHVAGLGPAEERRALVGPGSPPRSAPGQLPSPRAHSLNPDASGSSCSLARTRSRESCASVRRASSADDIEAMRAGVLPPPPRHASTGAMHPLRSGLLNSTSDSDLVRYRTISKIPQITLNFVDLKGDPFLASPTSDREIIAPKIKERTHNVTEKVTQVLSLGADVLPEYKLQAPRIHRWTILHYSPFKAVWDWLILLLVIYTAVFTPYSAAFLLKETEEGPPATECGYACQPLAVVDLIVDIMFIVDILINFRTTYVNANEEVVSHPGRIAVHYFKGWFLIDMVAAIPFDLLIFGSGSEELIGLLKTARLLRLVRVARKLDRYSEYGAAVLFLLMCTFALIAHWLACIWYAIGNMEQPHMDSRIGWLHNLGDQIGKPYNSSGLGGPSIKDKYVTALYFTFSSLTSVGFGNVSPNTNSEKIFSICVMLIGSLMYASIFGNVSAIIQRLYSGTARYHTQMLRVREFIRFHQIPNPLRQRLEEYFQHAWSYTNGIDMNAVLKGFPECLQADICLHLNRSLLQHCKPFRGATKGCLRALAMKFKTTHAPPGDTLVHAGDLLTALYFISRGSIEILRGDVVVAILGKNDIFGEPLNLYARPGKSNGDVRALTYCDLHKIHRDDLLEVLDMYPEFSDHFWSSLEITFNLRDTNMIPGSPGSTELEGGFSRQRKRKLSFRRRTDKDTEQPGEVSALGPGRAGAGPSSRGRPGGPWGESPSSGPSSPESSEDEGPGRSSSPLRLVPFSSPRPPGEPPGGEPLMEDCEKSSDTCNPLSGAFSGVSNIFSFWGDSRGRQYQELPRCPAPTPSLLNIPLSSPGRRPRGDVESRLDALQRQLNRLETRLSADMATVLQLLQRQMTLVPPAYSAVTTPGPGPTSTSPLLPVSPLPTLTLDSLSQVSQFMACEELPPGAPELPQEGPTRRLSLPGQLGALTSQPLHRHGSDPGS

[7] = Metabolic stability in male rat liver microsomes assessed as intrinsic clearance measured after 90 mins by HPLC/MS/MS analysis; format: ADME, Microsome; conditions: read-out: CLH
[8] = Clearance in male Sprague-Dawley rat at 1 mg/kg, po administered as single dose measured up to 24 hrs by HPLC analysis; format: ADME, organism-based; conditions: in vivo
[9] = Plasma protein binding in male rat assessed as unbound fraction; format: ADME, cell-free
[10] = Volume of distribution at steady state in male Sprague-Dawley rat at 1 mg/kg, po administered as single dose measured up to 24 hrs by HPLC analysis; format: ADME, organism-based; conditions: in vivo
[11] = Efflux ratio of apparent permeability in human Caco-2 cells; format: ADME, cell-based
[12] = Drug distribution in Sprague-Dawley rat extensor digitorum longus to blood ratio at 100 mg/kg, po by HPLC analysis; format: ADME, organism-based
[13] = Drug distribution in Sprague-Dawley rat plasma to blood ratio at 100 mg/kg, po by HPLC analysis; format: ADME, organism-based; conditions: in vivo
[14] = Drug distribution in Sprague-Dawley rat Soleus muscle to blood ratio at 100 mg/kg, po by HPLC analysis; format: ADME, organism-based
[15] = Drug distribution in Sprague-Dawley rat brain to blood ratio at 100 mg/kg, po by HPLC analysis; format: ADME, organism-based
[16] = Volume of distribution at steady state in male Sprague-Dawley rat at 3 mg/kg, po administered as single dose measured up to 24 hrs by HPLC analysis; format: ADME, organism-based; conditions: in vivo
[17] = Clearance in male Sprague-Dawley rat at 3 mg/kg, po administered as single dose measured up to 24 hrs by HPLC analysis; format: ADME, organism-based; conditions: in vivo
[18] = Oral bioavailability in male Sprague-Dawley rat at 3 mg/kg administered as single dose measured up to 24 hrs by HPLC analysis; format: ADME, organism-based; conditions: in vivo
[19] = Oral bioavailability in male Sprague-Dawley rat at 1 mg/kg administered as single dose measured up to 24 hrs by HPLC analysis; format: ADME, organism-based; conditions: in vivo
[20] = target: Voltage-gated inwardly rectifying potassium channel KCNH2 (Homo sapiens, UniProt Q12809); assay: Inhibition of human ERG expressed in HEK293 cells at -80 mV holding potential by patch clamp assay; format: cell-based
Chain of Voltage-gated inwardly rectifying potassium channel KCNH2 (Q12809 whole entry): as above

[21] = test system: Extensor digitorum longus; assay: Increase in muscle tension in rat extensor digitorum longus muscle rat model assessed as free plasma concentration to increase muscle tension at subtetanic nerve stimulation rate of 30 Hz; format: functional, tissue-based

CLint scaled [1] [mL/min/kg] | SMILES | EC40 (Psoas muscle [2]) [µM] | EC30 (Psoas muscle [3]) | also measured
< 7 | NC(=O)c1cccc(-c2ccc(NCC3(c4cnccn4)CCC3)nn2)c1 | 46.1 | – | –
6 | CC(C)(CNc1ncc(-c2cccc(C(N)=O)c2)cn1)c1ccc(F)cc1 | 8.7 | 7.8 µM | –
7 | CC(C)(CNc1ccc(-c2cccc(C(N)=O)c2)cn1)c1ccc(F)cc1 | 0.5 | 1.5 µM | –
– | CC(C)CCNc1nc(Cc2ccc(F)cc2)ns1 | > 49 | – | –
< 7 | NC(=O)c1cccc(-c2ccc(NCC3(c4ccccn4)CCC3)nn2)c1 | 0.5 | 0.9 µM | –
– | CC(CNc1nc(Cc2ccc(F)cc2)ns1)c1ccc(Cl)cc1 (stereo not drawn) | 1.1 | 16.7 µM | solubility thermodynamic [4]: < 27 µM
– | CC(C)(CNc1nc(Cc2ccc(F)cc2)ns1)c1ccc(Cl)cc1 | 0.6 | 7.4 µM | –
< 14 | NC(=O)c1cnn(-c2ccc(NC[C@]3(c4ncccc4F)C[C@H](F)C3)nn2)c1 | 0.8 | 1.1 µM | CLint scaled [5]: 90 mL/min/kg; Activity [6]: 7%; inhibition at 100 µM (hERG (KCNH2)): 16%; CLint scaled [7]: 30 mL/min/kg; CL/F [8]: 115 mL/min/kg; fraction unbound [9]: 0.55; Vdss [10]: 2.6 L/kg
– | NC(=O)c1ccn(-c2ccc(NCC3(c4ncccc4F)CCC3)nn2)n1 | 22.7 | – | –
– | CC(C)(CNc1cnc(-c2cccc(C(N)=O)c2)cn1)c1ccc(F)cc1 | 0.8 | inactive | –
– | NC(=O)c1nccc(-c2ccc(NCC3(c4ncccc4F)CCC3)nn2)n1 | > 49 | – | –
< 7 | CNC(=O)c1cccc(-c2cnc(NC[C@]3(c4ncccc4F)C[C@H](F)C3)nc2)c1 | 0.9 | 0.5 µM | CLint scaled [5]: < 32 mL/min/kg; Activity [6]: 31%; efflux ratio [11]: 10; inhibition at 100 µM (hERG (KCNH2)): 42%; Kp [12]: 0.54; Ratio [13]: 1.15; Kp [14]: 0.53; Kp [15]: 0.027; CLint scaled [7]: 14 mL/min/kg; Vdss [16]: 2.6 L/kg; fraction unbound [9]: 0.27; CL/F [17]: 52 mL/min/kg
– | NC(=O)c1cnn(-c2ccc(NCC3(c4ncccc4F)CC(F)(F)C3)nn2)c1 | 2.6 | 4 µM | –
– | CC(C)(CNc1nsc(-c2cccc(C(N)=O)c2)n1)c1ccc(F)cc1 | 0.5 | 7.1 µM | –
< 14 | NC(=O)c1cccc(-c2cnc(NC[C@]3(c4ncccc4F)C[C@H](F)C3)nc2)c1 | 0.3 | 0.8 µM | CLint scaled [5]: 38 mL/min/kg; Activity [6]: 68%; efflux ratio [11]: 1.8; inhibition at 100 µM (hERG (KCNH2)): 46%; Kp [12]: 1.2; Ratio [13]: 1.85; Kp [14]: 1.16; Kp [15]: 0.15; CLint scaled [7]: 38 mL/min/kg; Vdss [16]: 1.7 L/kg; fraction unbound [9]: 0.15; bioavailability [18]: 21%; CL/F [17]: 59 mL/min/kg
– | CC(C)(CNc1ccc(-c2cccc(C(N)=O)c2)nc1)c1ccc(F)cc1 | 0.3 | – | –
11 | NC(=O)c1cccc(-c2ccc(NCC3(c4ncccc4F)CCC3)nn2)c1 | 0.3 | 0.5 µM | –
– | CC(C)(CNc1cnc(-c2cccc(C(N)=O)c2)nc1)c1ccc(F)cc1 | 3.6 | – | –
< 14 | NC(=O)c1cnn(-c2ccc(NCC3(c4ncccc4F)CCC3)nn2)c1 | 0.5 | 0.7 µM | bioavailability [19]: 12%; CLint scaled [5]: 378 mL/min/kg; inhibition at 100 µM (hERG (KCNH2)): 19%; CLint scaled [7]: 30 mL/min/kg; IC50 [20]: > 100 µM; CL/F [8]: 136 mL/min/kg; fraction unbound [9]: 0.42; Vdss [10]: 2.2 L/kg
11 | CC(C)(CNc1nc(-c2cccc(C(N)=O)c2)ns1)c1ccc(F)cc1 | 0.5 | 1.4 µM | solubility thermodynamic [4]: < 27 µM
9 | CC(C)(CNc1nc(-c2ccc(C(N)=O)cc2)ns1)c1ccc(F)cc1 | 0.5 | 2.3 µM | solubility thermodynamic [4]: < 27 µM

CLint scaled [1] [mL/min/kg] | SMILES | EC40 (Psoas muscle [2]) [µM] | EC30 (Psoas muscle [3]) | also measured
< 14 | NC(=O)c1ccn(-c2cnc(NCC3(c4ncccc4F)CCC3)nc2)c1 | 1.3 | 1.4 µM | inhibition at 100 µM (hERG (KCNH2)): 43%
– | CC(Cc1ccc(Cl)cc1)Nc1nc(Cc2ccc(F)cc2)ns1 (stereo not drawn) | 22.1 | – | –
– | C#Cc1cnc2nc(O)n(C(CC)CC)c2n1 [TIRASEMTIV] | – | – | EC50 [21]: 6 µM; efflux ratio [11]: 0.9; Ratio [13]: 1.62; Kp [14]: 0.3; Kp [15]: 0.27; fraction unbound [9]: 0.05
< 7 | NC(=O)c1cccc(-c2ccc(NCC3(c4ccc(F)cn4)CCC3)nn2)c1 | 3.5 | 2.3 µM | –
– | CN(C)C(=O)c1cnn(-c2ccc(NCC3(c4ncccc4F)CCC3)nn2)c1 | 20.2 | – | –
– | NC(=O)c1cc(-c2ccc(NCC3(c4ncccc4F)CCC3)nn2)ncn1 | 4.4 | – | –
– | COCCCc1nsc(NCC(C)(C)c2ccc(F)cc2)n1 | 2.5 | – | –
– | CN(CC1(c2ccccn2)CCC1)c1ccc(-c2cccc(C(N)=O)c2)nn1 | > 49 | – | –
8 | CC(C)(CNc1ccc(-c2cccc(C(N)=O)c2)nn1)c1ccc(F)cc1 | 1.2 | 3 µM | solubility thermodynamic [4]: 86 µM (≈ 31.3 µg/mL)
– | CC(C)(CNc1nc(-c2ccccc2)ns1)c1ccc(F)cc1 | 8.9 | – | –
– | NC(=O)c1cnc(-c2ccc(NCC3(c4ncccc4F)CCC3)nn2)o1 | 3.9 | 5.4 µM | –
15 | NC(=O)c1cccc(-c2ccc(NCC3(c4ccc(F)cc4)CCC3)nn2)c1 | 0.2 | 0.6 µM | –
– | Fc1ccc(CCNc2nc(Cc3ccc(F)cc3)ns2)cc1 | 9.9 | – | –
– | CN(C)C(=O)c1cccc(-c2nsc(NCC(C)(C)c3ccc(F)cc3)n2)c1 | 2.9 | 3.1 µM | –
30 | CC(C)(CNc1ncns1)c1ccc(F)cc1 | 8.4 | – | –
– | Fc1ccc(Cc2nsc(NCCc3ccccc3)n2)cc1 | 23.3 | – | –
< 14 | NC(=O)c1ccn(-c2ccc(NCC3(c4ncccc4F)CCC3)nn2)c1 | 0.9 | 1.1 µM | CLint scaled [5]: 207 mL/min/kg; Activity [6]: 43%; inhibition at 100 µM (hERG (KCNH2)): 27%; CLint scaled [7]: 26 mL/min/kg; IC50 [20]: 97 µM; CL/F [8]: 73 mL/min/kg; fraction unbound [9]: 0.35; Vdss [10]: 2.4 L/kg
– | Fc1ccc(Cc2nsc(NCCc3ccc(Cl)cc3)n2)cc1 | 4.3 | 13.7 µM | –
< 14 | NC(=O)c1cnn(-c2cnc(NC[C@]3(c4ncccc4F)C[C@H](F)C3)nc2)c1 | 1.2 | 3.3 µM | –
– | NC(=O)c1cnc(-c2ccc(NCC3(c4ncccc4F)CCC3)nn2)s1 | 0.1 | 0.4 µM | IC50 [20]: > 100 µM
